{"source": "patent US20170119742A1", "about": "“MEDICAMENT FOR PREVENTING AND/OR TREATING STRESS DISEASES” (ONO PHARMACEUTICAL CO., LTD., priority 2014, published 2017)", "key": {"[1]": {"test_system": "brain TSPO", "experiment": "Brain occupancy using PET in monkeys, [11C] PBR28", "type": "in vivo", "conditions": "rhesus monkey PET, [11C] PBR28, oral", "protocol": "Male rhesus monkeys (Hamri Co., Ltd., at the time of use: 5 to 8 kg) were used. The vehicle (0.5 w/v % methylcellulose 400 cP solution) or the compound of the present invention (0.3 to 30 mg/kg) was once orally administered to 3 rhesus monkeys. After 2 hours of the administration, a PET measurement using [^11C] PBR28 was performed in the following manner.\nMeasurement equipment: PET camera; SHR-7700 (Hamamatsu Photonics K.K.) Image reconstruction: SHR Control II program (Hamamatsu Photonics K.K.) Change over time in brain radioactivity concentration and calculation of distribution volume: PMOD programs (PMOD Technologies Ltd.) Measurement methods: 120 minutes blank measurement and 30 minutes transmission measurement were performed using 68Ge/68Ga calibration source. Next, [^11C] […]\nThe compound of the present invention (0.3 to 10 mg/kg) was orally administered twice daily for 3 days, once on day 4 to 3 rhesus monkeys. […] Brain TSPO occupancy relative to the distribution volume of the vehicle control group was calculated by calculating the distribution volume of the interest area (cerebellum, hippocampus, striatum, thalamus, occipital lobe, temporal lobe, frontal lobe and parietal lobe) from the brain radioactivity concentration time change of [^11C] PBR28 and arterial blood plasma radioactivity which was corrected in a non-metabolic rate."}, "[2]": {"test_system": "female diarrhea-type IBS patients", "experiment": "Efficacy trial in humans 1: double-blind parallel-group study in IBS", "type": "in vivo, human", "conditions": "for Daily responder (%), Abdominal Pain and Stool Consistency: placebo 6.5; for Daily responder (%), Stool Consistency: placebo 10.9; for Weekly responder (%), Abdominal Pain and Stool Consistency: placebo 21.7; for Weekly responder (%), Stool Consistency: placebo 28.3; for Daily responder (%), Abdominal Pain: placebo 37; for Weekly responder (%), Abdominal Pain: placebo 39.1; for increase in the number of days per week with no abdominal pain: 4th week of treatment period, placebo 0.61", "protocol": "As a clinical trail, a double-bind, parallel-group study was conducted under the following conditions in female diarrhea-type IBS patients.\nPURPOSE: Confirmation of efficacy against clinical symptoms of IBS METHODS: This study was conducted at 49 centers in the United States and recruited 200 patients (aged 18-65 years) with female diarrhea-type IBS patients according to Rome III criteria (Gastroenterology, Vol. 130, p. 1480-1491, 2006). Patients were randomly assigned to any of the following three treatment groups (1:1:1 ratio) and received orally administration once-daily for 4 weeks. Patients recorded their IBS symptoms on a daily basis in an e-diary during a 2-week pre-treatment, the 4-week treatment period and for 4 weeks post-treatment. Safety monitoring was performed throughout the study. The primary endpoints were change from baseline (pre-treatment period) to week 4 in stool consistency (Bristol Stool Scale; BSS), stool frequency and abdominal pain (Numerical Rating Scale; NRS). Secondary endpoints included FDA responder analyses (Guidance for Industry Irritable Bowel Syndrome—Clinical Evaluation of Drugs for Treatment).\n(1) Placebo group (2) The compound of the present invention (20 mg treatment) group (3) The compound of the present invention (60 mg treatment) group ENDPOINTS: IBS symptoms (abdominal pain, stool consistency, stool frequency, faecal urgency and severity), QOL, psychological symptoms, safety, pharmacokinetics and biomarker RESULTS: Baseline value of patient layer and each of the parameters (stool consistency, stool frequency and abdominal pain) were similar in each treatment group. […] Further, a greater percentage of patients met responder criteria among patients in 60 mg treatment group of the compound of the present invention compared to placebo treatment group (Table 3, FIG. 10 and FIG. 11). On the other hand, the increase in the number of days per week with no abdominal pain at the 4th week of treatment period were 0.61 in placebo treatment group, 1.16 in 20 mg treatment group and 1.51 in 60 mg treatment group.\nThe weekly responder of abdominal pain and stool consistency was defined as a patient who met the both criteria of the above-mentioned abdominal pain score and stool consistency."}, "[3]": {"test_system": "female diarrhea-type IBS patients", "experiment": "HAM-A (Hamilton Anxiety Scale) in the clinical trial of Biological example 10", "type": "in vivo, human", "conditions": "60 mg treatment", "protocol": "In the clinical trial of Biological example 10, the therapeutic effect of the compound of the present invention 60 mg treatment on depression and anxiety-related diseases were evaluated using PSS (Perceived Stress Scale) (refer to Journal of Health and Social Behavior, 24, 386-396, 1983), HAM-A (Hamilton Anxiety Scale) (refer to The British journal of medical psychology, 32, 50-55, 1959) and HAM-D (Hamilton Depression scale) (refer to Journal of Neurology, Neurosurgery and Psychiatry, 23, 56-62, 1960) as rating scales."}, "[4]": {"conditions": "20 mg oral once daily 4 weeks, n = 41"}, "[5]": {"conditions": "60 mg oral once daily 4 weeks, n = 45"}}, "data": [{"smiles": "COc1cc(Cl)ccc1[C@H]1c2[nH]c3cccc(F)c3c2C2(CC2)CN1C(C)=O", "note": "[the compound of the present invention, (1S)-2-acetyl-1-(4-chloro-2-methoxyphenyl)-5-fluoro-1,2,3,9-tetrahydrospiro[β-carboline-4,1′-cyclopropane]]", "values": [{"measurement": "plasma concentration at which brain TSPO occupancy reaches about 50%", "setting": "[1]", "value": "about 70 ng/mL"}, {"measurement": "tolerability and safety profile", "setting": "[2]; 20 mg or 60 mg oral once daily for 4 weeks", "value": "well-tolerated and had a favourable safety profile"}, {"measurement": "Daily responder (%), Abdominal Pain and Stool Consistency", "setting": "[2]; [4]", "value": 14.6, "unit": "%"}, {"measurement": "Daily responder (%), Stool Consistency", "setting": "[2]; [4]", "value": 17.1, "unit": "%"}, {"measurement": "Weekly responder (%), Abdominal Pain and Stool Consistency", "setting": "[2]; [4]", "value": 22, "unit": "%"}, {"measurement": "Weekly responder (%), Stool Consistency", "setting": "[2]; [4]", "value": 41.5, "unit": "%"}, {"measurement": "Daily responder (%), Abdominal Pain", "setting": "[2]; [4]", "value": 36.6, "unit": "%"}, {"measurement": "Weekly responder (%), Abdominal Pain", "setting": "[2]; [4]", "value": 39, "unit": "%"}, {"measurement": "Daily responder (%), Abdominal Pain and Stool Consistency", "setting": "[2]; [5]", "value": 20, "unit": "%"}, {"measurement": "Daily responder (%), Stool Consistency", "setting": "[2]; [5]", "value": 26.7, "unit": "%"}, {"measurement": "Weekly responder (%), Abdominal Pain and Stool Consistency", "setting": "[2]; [5]", "value": 37.8, "unit": "%"}, {"measurement": "Weekly responder (%), Stool Consistency", "setting": "[2]; [5]", "value": 48.9, "unit": "%"}, {"measurement": "Daily responder (%), Abdominal Pain", "setting": "[2]; [5]", "value": 53.3, "unit": "%"}, {"measurement": "Weekly responder (%), Abdominal Pain", "setting": "[2]; [5]", "value": 57.8, "unit": "%"}, {"measurement": "number of days per week with at least one stool having a BSS classification of 6 or 7, vs placebo", "setting": "[2]; 60 mg treatment group, over the 4-week treatment period (FIG. 8)", "value": "Improvements over placebo treatment group"}, {"measurement": "average weekly score of the worst abdominal pain experienced during the past 24 hours, vs placebo", "setting": "[2]; 60 mg treatment group, over the 4-week treatment period (FIG. 9)", "value": "Improvements over placebo treatment group"}, {"measurement": "increase in the number of days per week with no abdominal pain", "setting": "[2]; 20 mg treatment group", "value": 1.16}, {"measurement": "increase in the number of days per week with no abdominal pain", "setting": "[2]; 60 mg treatment group", "value": 1.51}, {"measurement": "HAM-A score, 4th week", "setting": "[3]; Patient A, baseline 18", "value": 4}, {"measurement": "HAM-A score, Amount of change from baseline", "setting": "[3]; Patient A, baseline 18, 4th week", "value": "−14"}, {"measurement": "HAM-A score, 4th week", "setting": "[3]; Patient B, baseline 23", "value": 1}, {"measurement": "HAM-A score, Amount of change from baseline", "setting": "[3]; Patient B, baseline 23, 4th week", "value": "−22"}, {"measurement": "HAM-A score, 4th week", "setting": "[3]; Patient D, baseline 22", "value": 4}, {"measurement": "HAM-A score, Amount of change from baseline", "setting": "[3]; Patient D, baseline 22, 4th week", "value": "−18"}, {"measurement": "HAM-A score, 4th week", "setting": "[3]; Patient E, baseline 18", "value": 5}, {"measurement": "HAM-A score, Amount of change from baseline", "setting": "[3]; Patient E, baseline 18, 4th week", "value": "−13"}]}]}
